Consider 15 compounds from PMC2939770 (Bioorganic & Medicinal Chemistry, 2010).

In one experiment the test system is 6PGDH. On the set-up: method as in PMID 9307279. As to conditions: might bind to the cofactor binding site; cited from earlier work.
For experiment [1], the target named is T1, T. brucei 6PGDH (Trypanosoma brucei brucei, UniProt P31072).
T1 sequence (P31072 1-479): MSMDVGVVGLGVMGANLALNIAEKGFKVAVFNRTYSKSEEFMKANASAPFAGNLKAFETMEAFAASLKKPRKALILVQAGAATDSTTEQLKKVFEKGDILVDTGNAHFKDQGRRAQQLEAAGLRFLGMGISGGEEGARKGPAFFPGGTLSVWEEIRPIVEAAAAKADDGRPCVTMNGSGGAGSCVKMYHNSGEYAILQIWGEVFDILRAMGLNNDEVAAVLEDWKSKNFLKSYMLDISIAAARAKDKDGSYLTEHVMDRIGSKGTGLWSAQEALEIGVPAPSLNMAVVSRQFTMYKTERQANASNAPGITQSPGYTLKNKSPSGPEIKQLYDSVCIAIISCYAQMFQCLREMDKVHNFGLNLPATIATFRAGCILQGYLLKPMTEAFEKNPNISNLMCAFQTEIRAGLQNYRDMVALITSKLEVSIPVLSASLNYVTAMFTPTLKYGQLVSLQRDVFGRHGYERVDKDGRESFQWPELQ
To be noted: for Hill slope: slope of the IC50 curve, recombinant Tb6PGDH; for Ligand efficiency: −RTLn(IC50)/HAC, HAC: heavy atom count; for confirmation of enzyme inhibition on re-test: second round, repurchased hits of the first screening.
Procedure: (§1) Inhibition studies involved a reaction in 50 mM triethanolamine pH 7.0, 2 mM MgCl2. NADPH and 6PG were each at 20 μM. Total reaction volume was 1 ml. The reaction was followed in a Perkin Elmer UV–vis spectrophotometer. Compounds were dissolved in DMSO and initially added at 200 μM, then 50 μM.

Experiment [2] concerns the target T1, T. brucei 6PGDH. Kind of experiment: biochemical.
Procedure: as §1

As usually defined, the Hill slope is a measure of the steepness of the concentration-response curve. Broadly, the IC50 is the midpoint of a concentration-inhibition curve. Read a low IC50 as greater potency in that assay.

The structures appear in SMILES notation.

As for `NC(=O)c1ccc(N)nc1` [6-aminonicotinamide], the “inhibition of 6PGDH” value in the experiment on 6PGDH is listed as “potential inhibitor of 6PGDH”.

In the case of `CCOC(=O)c1[nH]c(C(=O)O)c(C)c1C` [Compound 1], at T. brucei 6PGDH [1], the Hill slope worked out at 1.6 and the Ligand efficiency is listed as 0.40 (kcal/mol)/HAC. Moreover, 45 ± 11 µM corresponded to half-maximal inhibition on T. brucei 6PGDH [2] (IC50).

Take `O=C(O)c1cc(Cl)c[nH]1` [Compound 2]: on T. brucei 6PGDH [1], the Hill slope amounted to 1.8 and the Ligand efficiency is 0.66 (kcal/mol)/HAC. Further, half-maximal inhibition against T. brucei 6PGDH [2] (IC50) required 43 ± 9 µM.

Regarding `Cc1oc([N+](=O)[O-])cc1C(=O)O` [Compound 3], on T. brucei 6PGDH [1], the Hill slope was found to be 1.5 and the Ligand efficiency was 0.52 (kcal/mol)/HAC. This compound had an IC50 at T. brucei 6PGDH [2] of 28 ± 6 µM.

On to `NC(=O)N1CCCC1C(=O)O` (centres unmarked) [Compound 4], for which the “confirmation of enzyme inhibition on re-test” value at T. brucei 6PGDH [1] is reported as “did not confirm the previous reported activity”.

For the compound `NC(C(=O)O)c1ccsc1` (centres unmarked) [Compound 5], the “confirmation of enzyme inhibition on re-test” value on T. brucei 6PGDH [1] is on record as “did not confirm the previous reported activity”.

Turning to `NC(CS(=O)(=O)O)C(=O)O` (centres unmarked) [Compound 10], the “confirmation of enzyme inhibition on re-test” value at T. brucei 6PGDH [1] was “did not confirm the previous reported activity”.

In the case of `O=C1CC(S(=O)(=O)[O-])c2ccccc2/C1=N/O.[Na+]` (centres unmarked) [Compound 11], on T. brucei 6PGDH [1], the Hill slope is 1.4 and the Ligand efficiency is recorded as 0.33 (kcal/mol)/HAC. Moreover, on T. brucei 6PGDH [2], the IC50 came to 73 ± 9 µM.

Turning to `Cc1c(C(=O)O)oc2c1C(=O)CSC2` [Compound 12], at T. brucei 6PGDH [1], the Hill slope came to 1.7 and the Ligand efficiency is 0.42 (kcal/mol)/HAC. Moreover, the IC50 against T. brucei 6PGDH [2] came to 51 ± 3 µM.

In the case of `O=C(O)c1cc2sccc2[nH]1` [Compound 13], at T. brucei 6PGDH [1], the Hill slope is on record as 1.1 and the Ligand efficiency is listed as 0.54 (kcal/mol)/HAC. Besides, half-maximal inhibition on T. brucei 6PGDH [2] (IC50) was put at 42 ± 7 µM.

On to `Cc1c(C(=O)O)[nH]c(-c2[nH]c(C(=O)O)c(C)c2C)c1C` [Compound 14], for which, on T. brucei 6PGDH [1], the Hill slope worked out at 1.4 and the Ligand efficiency was 0.27 (kcal/mol)/HAC. The compound also returned an IC50 on T. brucei 6PGDH [2] of 114 ± 27 µM.

On to `O=C(O)C(=Cc1ccc([N+](=O)[O-])o1)C(=O)O` [Compound 15], for which, on T. brucei 6PGDH [1], the Hill slope was determined as 5.2 and the Ligand efficiency is 0.36 (kcal/mol)/HAC. This compound also displayed an IC50 on T. brucei 6PGDH [2] of 56 ± 6 µM.

`O=C1C=C(S(=O)(=O)[O-])c2ccccc2C1=O.[K+]` [Compound 16]: the Hill slope at T. brucei 6PGDH [1] is on record as 4.8.

Take `N#C/C(=C\c1ccc([N+](=O)[O-])o1)C(=O)O` [Compound 17]: on T. brucei 6PGDH [1], the Hill slope is on record as 2.0 and the Ligand efficiency is listed as 0.48 (kcal/mol)/HAC. The compound also yielded a concentration for half-maximal inhibition (IC50) against T. brucei 6PGDH [2] of 5.8 ± 0.6 µM.

Regarding `O=C(O)c1cc(Cl)c(Cl)[nH]1` [Compound 18], at T. brucei 6PGDH [1], the Hill slope is 2.1 and the Ligand efficiency was 0.60 (kcal/mol)/HAC. Further, half-maximal inhibition at T. brucei 6PGDH [2] (IC50) required 42 ± 3.7 µM.
